Measurements reported in article PMC8453745, “Human Mass Balance and Metabolite Profiling of [^14C]‐Pamiparib, a Poly (ADP‐Ribose) Polymerase Inhibitor, in Patients With Advanced Cancer” (Clinical Pharmacology in Drug Development, 2021).
“Also recorded” adds a separate entry of the source.

What was measured:
[1] = total radioactivity in whole blood of patients (LSC); assay type: in vivo, human; details: n = 4
Source text: Part 1 of the study included a screening phase of up to 28 days prior to drug administration to assess eligibility. Patients were admitted to the clinical research unit (CRU) at Royal Liverpool University Hospital (Liverpool, UK)/Clatterbridge Cancer Centre NHS Foundation Trust (Bebington, Wirral, UK) on day −1 and received a single dose of 60‐mg/100 μCi [^14C]‐pamiparib orally the morning of day 1. Patients remained in the CRU until completion of assessments on day 7, when discharge criteria of ≈90% of the radioactive dose being recovered or <1% of the radioactive dose being recovered in urine and feces for 2 consecutive 24‐hour collection intervals were met. […]
Patients fasted overnight and 2 hours after oral administration of a single 60‐mg dose containing ≈100 μCi (3.7‐3.9 MBq) of [^14C]‐pamiparib with ≈240 mL of room‐temperature water or juice (orange or grape). The residual radioactivity present in each vial postdose was corrected from the dose. The radioactive dose of 100 μCi of [^14C]‐pamiparib provided minimum risk to patients according to the dosimetry calculation from a quantitative whole‐body autoradiography study in male and female Long Evans rats; the dose also provided sufficient signal for total radioactivity counting and quantitative radioprofiling in blood, plasma, and excreta (data on file). […]

CYP3A = experiment: CYP450 phenotyping in HLMs with CYP3A inhibitor ketoconazole; assay type: in vitro ADME, human; details: 90‐minute HLM incubation with CYP3A4 inhibitor ketoconazole (1 μM)
Experimental: (§1) Metabolic stability in human liver microsomes (HLMs) and cytochrome P450 (CYP450) phenotyping assays were conducted in 3D BioOptima (Suzhou, China) using validated methodology, [13] to determine the intrinsic clearance and enzymes responsible for metabolism of pamiparib. HLMs for microsome stability was from BD Biosciences (Woburn, New York). For phenotyping, HLMs and recombinant P450 (rCYP) were from Corning (Woburn, New York). Pamiparib (1 μM) was incubated with pooled HLM (0.5 mg/mL), NADPH (1 mM), and MgCl2 (3 mM) terminated at 0, 5, 15, 30, 60, and 90 minutes. The intrinsic clearance was calculated as 0.693/(t1/2 × HLM concentration), where t1/2 is the half‐life of pamiparib determined in HLMs. For phenotyping in HLMs, pamiparib (1 μM) was incubated in the absence or presence of isoform‐selective inhibitors: 0.2 μM α‐naphthoflavone for CYP1A2, 2 μM clopidogrel for CYP2B6, 16 μM montelukast for CYP2C8, 10 μM sulfaphenazole for CYP2C9, 30 μM nootkatone for CYP2C19, 2 μM quinidine for CYP2D6, and 1 μM ketoconazole for CYP3A. The following isoform‐selective probe substrates served as positive controls: 40 μM phenacetin for CYP1A2, 100 μM bupropion for CYP2B6, 2 μM amodiaquine for CYP2C8, 5 μM diclofenac for CYP2C9, 40 μM S‐mephenytoin for CYP2C19, 5 μM dextromethorphan for CYP2D6, and 2 μM midazolam for CYP3A4. […] Pamiparib, M1, and M2 were analyzed by LC‐MS/MS.

CYP2D6 = biological target: T1, CYP2D6 (Homo sapiens, UniProt P10635); experiment: CYP450 phenotyping in HLMs with CYP2D6 inhibitor quinidine; assay type: in vitro ADME; details: HLM incubation
T1 construct: tissue Corning (Woburn, New York); host or cells: pooled human liver microsomes
Experimental: as §1

PARP activity = test system: PARP activity; set-up: method as in PMID 33264017; details: read-out: inhibition of PARP activity in cellular PARylation assay, IC50; cited from earlier work
[2] = test system: Chinese hamster ovary cells; set-up: method as in data on file; details: in vitro chromosomal aberration assay, CHO cells; ref data on file; cited from earlier work

T1 sequence (P10635 whole entry): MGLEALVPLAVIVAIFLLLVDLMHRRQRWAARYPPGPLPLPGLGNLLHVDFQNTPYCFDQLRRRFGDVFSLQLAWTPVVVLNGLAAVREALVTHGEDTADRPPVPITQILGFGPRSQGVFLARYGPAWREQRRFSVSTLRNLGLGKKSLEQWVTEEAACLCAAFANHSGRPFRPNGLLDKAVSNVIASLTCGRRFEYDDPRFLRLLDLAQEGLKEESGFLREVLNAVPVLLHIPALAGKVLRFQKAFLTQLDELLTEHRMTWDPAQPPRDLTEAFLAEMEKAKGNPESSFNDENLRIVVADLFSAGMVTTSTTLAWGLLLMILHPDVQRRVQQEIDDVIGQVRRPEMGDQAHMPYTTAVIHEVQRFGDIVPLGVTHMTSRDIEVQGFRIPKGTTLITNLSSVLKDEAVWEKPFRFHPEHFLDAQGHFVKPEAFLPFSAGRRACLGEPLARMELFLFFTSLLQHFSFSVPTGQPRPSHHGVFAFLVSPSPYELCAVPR

For `C[C@]12CCCN1CC1=NNC(=O)c3cc(F)cc4[nH]c2c1c34` [Pamiparib], the “AUC0‐∞ ratio blood/plasma, geometric mean (CV%)” value [1] was “≈ 0.764; also recorded: ≈ 0.76”, the pamiparib remaining (CYP3A) was 63.1% and the “effect of CYP2D6 inhibitor quinidine on pamiparib metabolism” value (CYP2D6) was “minimal effect”. For the same compound, the IC50 (PARP activity) was 0.2 nM and the clastogenic activity [2] was “clastogenic activity”.
